# What was measured:
# [1] = tested on: lipopolysaccharide (LPS) administered to rats; settings: cited from earlier work
# aged rats = settings: chronic treatment; cited from earlier work
# aged animal model = settings: daily intraperitoneal injection, male and female populations; cited from earlier work
# [2] = tested on: human diploid fibroblast cells; settings: cited from earlier work
# [3] = Antioxidant assay: AIBN-initiated oxidation of cumene to cumene hydroperoxide, followed by 1H NMR; format: physicochemical; settings: atmospheric oxygen, 37° C., FIG. 1
# Procedure: In the following example, comparative testing of the antioxidant activity of azulenyl nitrone compounds of the invention against a control, was performed. The assay was based on the well-established oxidation of cumene to cumene hydroperoxide by atmospheric oxygen at 37° C. in the presence of the free radical initiator AIBN (Blanchard, H. S. J. Am. Chem. Soc. (1959) 81:4548; Characterization of products formed during the autoxidation of beta carotene. Handelman, G. J., van Kujik, F. J. G. M., Chatterjee, A., Krinsky, N. I. Free Rad. Biol. Med. (1991) 10: 427-37). The progress of the peroxidation reaction is conveniently followed and quantified by 1H NMR spectroscopy by monitoring the appearance and increasing integration of the singlet arising from the methyl groups of cumene hydroperoxide. The use of a long, low power, selective pulse (Shaped radiofrequency pulses in high resolution NMR. Freeman, R. J. Prog. Nuc. Mag. Spec. (1998) 32:59) allowed the growth of the cumene hydroperoxide methyl group singlet to be accurately measured in the presence of a huge excess of cumene. This was shown by using known concentrations of commercially available cumene hydroperoxide to calibrate the peak areas.
# [4] = aqueous solution at pH 7 and 20° C.; cited from earlier work
smiles,measurement,setting,value
"CC1(C)Cc2ccccc2C=[N+]1[O-] [MDL 101,002]",LPS-induced leukopenia,[1],failed to prevent leukopenia
same,LPS-induced pulmonary edema,[1],prevented pulmonary edema
same,LPS-induced thrombocytopenia,[1],partially reduced thrombocytopenia
same,organ dysfunction and cytokine secretion induced by LPS,[1],reduces
"CC(C)(C)[N+]([O-])=Cc1ccccc1 [PBN, alpha-phenyl N-tert-butylnitrone]",age-related changes in cognitive performance,aged rats,"benefit (i.e., improve)"
same,lifespan,aged animal model,remarkable extension of the lifespan
same,onset of senescence,[2],effectively delayed the onset of senescence
Cc1ccc(C(C)C)cc2c(C=C3SCCCS3)cc(/C=C/c3cc(/C=[N+](\[O-])C(C)(C)C)c4cc(C(C)C)ccc(C)c3-4)c1-2 [STNXY],potency as nitrone-based chain breaking antioxidants / free-radical scavenging/antioxidant activity,[3],remarkable potency
"Cc1ccc(C(C)C)cc2c(/C=[N+](\[O-])C(C)(C)C)cc(/C=C/c3cc(/C=[N+](\[O-])C(C)(C)C)c4cc(C(C)C)ccc(C)c3-4)c1-2 [STAZN, Stilbazulenyl Nitrone]",potency as nitrone-based chain breaking antioxidants / free-radical scavenging/antioxidant activity,[3],remarkable potency
"Cc1c(C)c2c(c(C)c1O)CC[C@@](C)(CCC[C@H](C)CCC[C@H](C)CCCC(C)C)O2 [vitamin E, alpha-tocopherol]",one-electron oxidative potential (vs. NHE),[4],0.48 V
same,age-related changes in cognitive performance,aged rats,"benefit (i.e., improve)"
COC=Cc1cc(/C=C/c2cc(/C=[N+](\[O-])C(C)(C)C)c3cc(C(C)C)ccc(C)c2-3)c2c(C)ccc(C(C)C)cc1-2 [I],melting point,,235 °C (dec.)
